Experimental data: patent US9896491B2, “Composition for treatment of multiple sclerosis” (LIFEBIO LABORATORIES LLC, priority 2009, dated 2018)

Experiments:
ESAMBPCAA [1] = assay: ESAMBPCAA mediated MBP hydrolysis in serum of treated EAE DA rats; assay type: in vivo; details: days 8-12; for rates of MBP-specific auto antibody mediated hydrolysis: median for 6 animals
[2] = test system: Experimental Allergic Encephalomyelitis (EAE) in DA rats; assay: MDS score in EAE DA rats; assay type: in vivo; details: intranasal, days 8-12; FIG. 4; dose-dependent for SEQ ID NO: 2
ESAMBPCAA [3] = assay: Inhibition of ESAMBPCAA mediated MBP hydrolysis by synthetic oligopeptides of MBP fragment 43-68; assay type: biochemical, human; details: antibodies 30 nM, MBP 4 mkM, 16 h at 37° C.; FIG. 3
Protocol: (§1) MBP hydrolysis by anti MBP auto antibodies was assayed as follows: Purified antibodies (0.1-1 μg) were incubated at 37° C. for 14 h in the final volume of 12.5 μl PBS, 0.02% NaN3 containing 1-2 μg of MBP. The samples were mixed with Laemmli's buffer. The extent of MBP degradation was visualized by SDS-PAGE in Tris-glycine and Tricine buffer systems. For quantitative MBP degradation assay, MBP (10 μM) was incubated at 37° C. with antibodies (60 nM) in 0.1 ml of PBS, 0.02% NaN3 for 12 h. The reaction was stopped by adding 10% TFA up to pH 2.5. The samples were further chromatographed on column C4 4.0/150 (Waters). The amount of non-cleaved MBP was calculated by absorbance monitoring at 280 nm.
The oligopeptides were assayed for their potency to inhibit ESAMBPCAA mediated MBP hydrolysis using ESAMBPCAA collected from progressive MS Patient as specified in Example 1. Different concentrations of test peptides were mixed with both antibodies (30 nM) and MBP (4 mkM) in TBS with_0.1% NaN3_and 10 mM CaCl2. The samples were incubated for 16 h at 37° C. and analyzed on 15% SDS_PAGE. The gels were stained by Coomassie and analyzed by densitometry with TOTALLAB 2.01 software (Nonlinear Dynamics, Ltd., Newcastle upon Tyne, U.K.). […] Shortening of oligopeptide lengths to less than 6 amino acids lead to complete lack of ESAMBPCAA inhibitory activity.

ESAMBPCAA [4] = assay: ESAMBPCAA mediated MBP hydrolysis in serum samples of progressive MS patients in presence of test substances; assay type: biochemical, human; details: for MBP-specific auto antibody mediated hydrolysis: test substance 100 nM
Protocol: as §1
Serum samples collected from 5 patients suffering from progressive MS were quantified for ESAMBPCAA mediated MBP hydrolysis as specified in Example 1 in presence of following substances: […]

[5] = test system: Experimental Allergic Encephalomyelitis (EAE) in Dark Agouti (DA) Rats; assay: EAE induced by MBP 63-81 in DA rats: clinical signs score; assay type: in vivo
Protocol: Female Dark Agouti (DA) Rats, 8-9 weeks of age, about 110-145 g of weight were used as test animals.
For induction of Experimental Allergic Encephalomyelitis (EAE), rats were injected intradermally at the base of the tail with a total volume of 200 μl of inoculum containing 50 μg of MBP 63-81 (ANASPEC), in saline mixed (1:1) with Complete Freund Adjuvant, (IFA, Sigma), and 1 mg killed M. tuberculosis strain (strain H37 RA; Difco Laboratories, Detroit, Mich.). Beginning 24 hours after EAE induction the rats were followed up daily. On day 9 after the after EAE induction more than 50% of the rats developed signs of paralysis. The animals with multiple sclerosis signs were separated into 10 groups for beginning of treatment. Prior to treatment, blood was collected from 2 rats from each group. At day 9 and 11 after EAE induction, 90% of rats developed signs of EAE.
9-11 days after EAE induction the animals were divided into 9 groups (5-6 rats in each). Each group of rats was treated subcutaneously once daily with different claimed oligopeptide or theirs combinations (equimolar mix) (150 μg) or doses of positive control item (Glatiramer acetate, Copaxone, Teva) or negative control item (0.9% Sodium chloride solution), during 6 days as follows:
Copaxone, claimed oligopeptide and combinations thereof (Mechanical mix) were diluted with 0.9% Sodium chloride to a concentration of 450 μg/ml. Volume of 0.33 ml (150 μg/rat/day) was injected SC during 6 days.
After 6 days of the injections cycle the animals were maintained and followed up till day 28th post EAE induction. Clinical signs score was performed daily during study periods. Animals were observed individually during all study periods. In cases of extended observation period clinical signs were recorded once daily. Observations included changes in the fur, eyes, respiratory rate, vocalization, paralysis, activity and behavior pattern. Score of paralysis signs related to MS of each animal was done daily (during all study periods).
Score gradation was as follows: 0—Normal; 1—Tail weakness; 2—Hind leg weakness or paralysis; 3—Hind leg paralysis, dragging hind limbs; 4—Complete paralysis, unable to move; 5—Death.

[6] = test system: Experimental MS (Theiler's Virus Infection) in SJL mice; assay: Experimental MS (Theiler's Virus Infection): disease manifestation and MDS score; assay type: in vivo; details: 20 μg of each oligopeptide daily subcutaneous, days 14-24
Protocol: (§2) The BeAn strain of TMEV used in this study was generated and propagated in BHK-21 cells grown in Dulbecco's modified Eagle's medium supplemented with 7.5% donor calf serum. For i.c. infection, 30 μl of virus solution (0.2×10^6 to 6×10^6 PFU) was injected into the right cerebral hemisphere of 6- to 8-week-old SJL mice (8 animals per group) anesthetized with isoflurane. Clinical symptoms (MDS score) of disease were assessed weekly on the following grading scale: grade 0, no clinical signs; grade 1, mild waddling gait or flaccid tail; grade 2, severe waddling gait; grade 3, moderate hind limb paresis; and grade 4, severe hind limb paralysis. Serum samples collected from animals were quantified for ESAMBPCAA mediated MBP hydrolysis as specified in Example 1
(§3) At day 14 following infection mice were divided into 6 groups ([…]) and treated during 10 days (days 14-24) according following schedule: […]

ESAMBPCAA [7] = assay: ESAMBPCAA mediated MBP hydrolysis in serum of treated TMEV-infected SJL mice; assay type: in vivo; details: 20 μg of each oligopeptide daily subcutaneous, days 14-24
Protocol: as §1, §2, §3

## GGDRGAPKRGSGKDSHH [SEQ ID NO: 2]
ESAMBPCAA [1]; Day 8 (start of treatment), 50 μg daily intranasal
  rates of MBP-specific auto antibody mediated hydrolysis: 43.1 ± 6.4 pmol/min/nmol
ESAMBPCAA [1]; Day 8 (start of treatment), 120 μg daily intranasal
  rates of MBP-specific auto antibody mediated hydrolysis: 42.8 ± 5.5 pmol/min/nmol
ESAMBPCAA [1]; Day 16, 50 μg daily intranasal
  rates of MBP-specific auto antibody mediated hydrolysis: 35.6 ± 4.9 pmol/min/nmol
ESAMBPCAA [1]; Day 16, 120 μg daily intranasal
  rates of MBP-specific auto antibody mediated hydrolysis: 17.3 ± 5.4 pmol/min/nmol
ESAMBPCAA [1]; Day 24, 50 μg daily intranasal
  rates of MBP-specific auto antibody mediated hydrolysis: 46.3 ± 2.9 pmol/min/nmol
ESAMBPCAA [1]; Day 24, 120 μg daily intranasal
  rates of MBP-specific auto antibody mediated hydrolysis: 15.1 ± 3.9 pmol/min/nmol
ESAMBPCAA [1]; intranasal, dose-dependent for SEQ ID NO: 2
  suppression of MBP-specific auto antibody mediated hydrolysis: most efficiently suppressed
[2]
  suppression of MDS score: most efficiently suppressed
ESAMBPCAA [3]
  inhibition of ESAMBPCAA activity (ESAMBPCAA mediated MBP hydrolysis): most potent inhibitory activity
ESAMBPCAA [4]; 100 nM, summary of Table 3
  suppressive effect on MBP-specific auto antibody mediated hydrolysis: potent suppressive effect
ESAMBPCAA [4]; Patient 1
  MBP-specific auto antibody mediated hydrolysis: 11.2 ± 3.5 pmol/min/nmol
ESAMBPCAA [4]; Patient 2
  MBP-specific auto antibody mediated hydrolysis: 17.3 ± 4.1 pmol/min/nmol
ESAMBPCAA [4]; Patient 3
  MBP-specific auto antibody mediated hydrolysis: 14.4 ± 2.2 pmol/min/nmol
ESAMBPCAA [4]; Patient 4
  MBP-specific auto antibody mediated hydrolysis: 14.5 ± 4.4 pmol/min/nmol
ESAMBPCAA [4]; Patient 5
  MBP-specific auto antibody mediated hydrolysis: 16.9 ± 7.3 pmol/min/nmol
[5]; 150 μg/rat/day SC during 6 days
  suppression of EAE clinical signs: most efficiently suppressed
[5]; 150 μg/rat/day SC during 6 days from day 9-11 after EAE induction, score 0-5
  Clinical signs score on day 23 after induction (mean): 0.5
[6]
  disease-preventive (prophylactic) activity: disease-preventive (prophylactic) activity
[6]; 30 mice per group
  % Animals affected with disease at day 100: 19(30) %
[6]; FIG. 5
  suppression of MDS score: most efficiently suppressed
ESAMBPCAA [7]
  ESAMBPCAA activity at day 100: 11.4 ± 3.5 pmol/min/nmol
  suppression of MBP-specific auto antibody mediated hydrolysis: most efficiently suppressed
